Values joined by “and” are separate entries in the source; they are usually repeats but may differ in a detail not shown here. Equal values may be shown once. Read-outs that look alike come from different tables or passages of the source.
Legend:
[1] = tested on: MDR strains of Gram-negative bacteria; set-up: method as in PMID 26824939; conditions: cited from earlier work
HepG2 cells = assay: Hepatotoxicity, MTS viability assay; assay type: cell-based; conditions: 72 h; for HepG2 cells' viability: MTS
Procedure: Determination of potential hepatotoxicity was performed with hepatoma HepG2 cells by standard colorimetric MTS procedure. Compound 9 was diluted into the cell culture media in the following concentrations: 0.1, 1, 10 and 100 μM, added to the cells and incubated for 72 h at 37 °C in the presence of 5% CO2. The cytostatic drug doxorubicin (DX) was used at 1 µM, as the reference. […] However, in comparison to the result obtained for the reference DX the hepatotoxicity potential of tested compound is moderate, as its decreased cells’ viability to ~74% of control at 10 µM, whereas DX to ~15% of control at 1 µM (Figure 10).
The HepG2 cells were seeded in 96-well plates at a concentration of 1 × 10^4 cells/well and incubated for 24 h at 37 °C in 5% CO2 atmosphere to reach 50% of confluence. Compound 9 was diluted into fresh growth medium and added to the cells at the final concentrations 0.1 μM–100 μM. The positive controls DX and CCCP were added at 1 μM and 10 μM, respectively, and the cells were incubated for 72 h. The MTS reagent (CellTiter 96® AQueous One Solution Cell Proliferation Assay, Promega, Madison, WI, USA) was added next to the each well and incubated for 4 h. The absorbance was measured next using a microplate reader (EnSpire, PerkinElmer, Waltham, MA USA) at 490 nm to determine cells’ viability.

[2] = tested on: E. aerogenes Ea-294, Ea-298; assay: MIC (microdilution) against E. aerogenes strains devoid of AcrAB / TolC
E. aerogenes Ea-289 = assay: MIC (microdilution) against E. aerogenes Ea-289 overexpressing AcrAB-TolC, porin-deficient
S. aureus ATCC 25923 [3] = assay: Intrinsic antibacterial activity (MIC, microdilution) against reference S. aureus strain; assay type: cell-based; conditions: S. aureus ATCC 25923, compound alone, MH II broth
Procedure: (§1) Initially, 12 arylideneimidazolone derivatives were evaluated in vitro for their intrinsic antibacterial effect against two strains of S. aureus: the reference strain S. aureus ATCC 25923 and extremely-drug resistant (XDR) MRSA HEMSA 5 clinical isolate. This step of the study was necessary for: (i) elucidation whether molecules tested are devoid of antistaphylococcal activity and thus cannot become antimicrobial agents by themselves; and (ii) determination of the concentrations of compounds suitable for the further assay on their antibiotic adjuvant potency. In addition, the antistaphylococcal efficacy of oxacillin, which was paired with compounds tested, in the following assays was also assessed (Table 3).

MRSA HEMSA 5 [4] = assay: Intrinsic antibacterial activity (MIC, microdilution) against MRSA HEMSA 5; assay type: cell-based, S. aureus
Procedure: as §1

E. aerogenes CM-64 = assay: MIC (microdilution) against E. aerogenes CM-64 overexpressing AcrAB-TolC
S. aureus ATCC 25923 [5] = assay: MIC reduction assay: influence on oxacillin susceptibility in reference strain; assay type: cell-based
MRSA HEMSA 5 [6] = assay: MIC reduction assay: influence on oxacillin susceptibility in MRSA; assay type: cell-based, S. aureus
Procedure: The lack of a direct antibacterial activity of arylideneimidazolone derivatives tested allowed analyzing their anti-resistance potency in combination with the β-lactam antibiotic, oxacillin. […] The potential of compounds to become antibiotic adjuvants was evaluated by comparing the drug effectiveness in the presence and absence of compounds tested, thereby, by determining activity gain parameter A (Table 5). […] Slightly lower adjuvant-like activity was determined for the imidazolone derivatives 7 and 10 (A = 8–16). The efficacy of the remaining compounds was slightly less marked, however, also significant. Although compounds tested improved noticeably the antibacterial activity of oxacillin against MRSA clinical isolate, none of them restored the activity of the antibiotic (MIC < 2 µg/mL) against this highly resistant strain.

[7] = tested on: AcrAB-TolC efflux pump in E. aerogenes Ea-289; assay: Real-time efflux (RTE) assay with 1,2'-dNA; conditions: compound 100 µM; Ea-289 strain
[8] = tested on: Salmonella typhimurium TA100; assay type: cell-based; conditions: for Mean of Revertants: 72 h; for Fold Increase Over Baseline: mutagenic if ≥ 2; for Binomial B-Value: ≤ 0.01 may be cytotoxic effect
Procedure: The mutagenicity was evaluated using Ames microplate fluctuation protocol (MPF) performed with Salmonella typhimurium TA100 strain, which is able to detect base pair substitutions. Calculation of medium control baseline (MCB) was performed basing on mean number of revertants in standard medium control in addition with one standard deviation. According to the manufacturer’s protocol, the mutagen alert is determined as 2-fold of medium control baseline (2 x MCB), which in this study was calculated as 24 revertants.
Ames microplate fluctuation protocol (MPF) assay was obtained from Xenometrix AG (Allschwil, Switzerland). The occurrence of mutagen-induced or spontaneous reversion events to histidine prototrophy was determined as a growth of S. typhimurium TA100 in the indicator medium without histidine after 72 h incubation at 37 °C temperature. NQNO (0.5 µM) was used as a positive control. Compound 9 was tested in triplicate at the final concentrations 1 and 10 µM. The revertants’ growth induced the colour change of medium which was analysed next colourimetrically with a microplate reader (EnSpire, PerkinElmer, Waltham, MA, USA) at 420 nm.

[9] = PAMPA membrane permeability (Pre-coated PAMPA Plate System Gentest); assay type: in vitro ADME; conditions: 200 µM in PBS pH 7.4, room temperature, read-out: Pe ± SD

Question: Which “reduction of rifampin MIC” value ([1]; MDR Gram-negative bacteria) does the source give for `O=C1NC(N2CCNCC2)=N/C1=C\c1ccc(-c2ccccc2)cc1` [Compound 5] here?
Answer: Its value is 32 fold.

Question: And the “reduction of antibiotics MIC values” ([1]; oxacillin, chloramphenicol, linezolid and clarytromycin)?
Answer: Its value is 8 fold.

Question: For `COc1cccc2c1C(=O)c1c(O)c3c(c(O)c1C2=O)C[C@@](O)(C(=O)CO)C[C@@H]3O[C@H]1C[C@H](N)[C@H](O)[C@H](C)O1` [DX, doxorubicin, reference compound], which “HepG2 cells' viability” value (HepG2 cells; 1 µM) is on record?
Answer: Its value is ~ 15 % of control.

Question: With “(Z)-5-((9H-Fluoren-2-yl)methylene)-2-amino-3-(2-(4-methylpiperazin-1-yl)ethyl)-3H-imidazol-4(5H)-one hydrochloride [Compound 13]” as the molecule, how does the MIC ([2]; Ea-294, Ea-298) read?
Answer: The MIC was 250 µM.

Question: And the MIC (E. aerogenes Ea-289; Ea-289)?
Answer: Its MIC is 500 µM.

Question: What about the “MIC Value” (S. aureus ATCC 25923 [3]) of the same molecule?
Answer: Its value is 62.5 to 125 µM.

Question: What about the “MIC Value” (MRSA HEMSA 5 [4]; MRSA HEMSA 5, compound alone, MH II broth) of the same molecule?
Answer: Its value is 125 µM.

Question: What about the MIC (MRSA HEMSA 5 [4]; text summary for both strains: ATCC 25923 and MRSA HEMSA 5) of the same molecule?
Answer: The MIC was 0.0625–0.125 mM and 28.25–56.5 µg/mL.

Question: And the MIC (E. aerogenes CM-64; CM-64)?
Answer: Its MIC is 500 µM.

Question: And the “Activity Gain [A]” value (S. aureus ATCC 25923 [5])?
Answer: Its value is 1.

Question: What about the “Range of Reduction (oxacillin MIC)” value (S. aureus ATCC 25923 [5]) of the same molecule?
Answer: Its value is “no effect”.

Question: And the “Activity Gain [A]” value (MRSA HEMSA 5 [6])?
Answer: Its value is 4–8.

Question: What about the “Range of Reduction (oxacillin MIC)” value (MRSA HEMSA 5 [6]) of the same molecule?
Answer: The value was “from 512 to 64-128”.

Question: Which MIC ([2]; Klebsiella aerogenes) does the source give for `CN1CCN(CCCN2C(=O)/C(=C/c3ccc4ccccc4c3)N=C2N)CC1.Cl` [Compound 9, (Z)-2-Amino-3-(3-(4-methylpiperazin-1-yl)propyl)-5-(naphthalen-2-ylmethylene)-3H-imidazol-4(5H)-one hydrochloride] here?
Answer: Its MIC is 1000 µM.

Question: And the “Inhibitory efficiency (IE) of 1,2'-dNA efflux” value [7]?
Answer: The value was 80%.

Question: What about the MIC (E. aerogenes Ea-289; Klebsiella aerogenes, EA289) of the same molecule?
Answer: The MIC was over 2000 µM.

Question: What about the MIC (S. aureus ATCC 25923 [3]; Staphylococcus aureus, ATCC25923, read-out: MIC Value) of the same molecule?
Answer: Its MIC is 500 µM.

Question: What about the “Mean of Revertants” value ([8]; 1 µM) of the same molecule?
Answer: The value was 9.33.

Question: And the “Fold Increase Over Baseline” value ([8]; 1 µM)?
Answer: The value was 0.78.

Question: And the “Binomial B-Value” ([8]; 1 µM)?
Answer: The value was 0.6331.

Question: What about the “Mean of Revertants” value ([8]; 10 µM) of the same molecule?
Answer: Its value is 5.33.

Question: And the “Fold Increase Over Baseline” value ([8]; 10 µM)?
Answer: Its value is 0.44.

Question: What about the “Binomial B-Value” ([8]; 10 µM) of the same molecule?
Answer: The value was 0.0093.

Question: What about the maximum revertants occurred ([8]; 1 and 10 µM, mutagen alert 24 revertants) of the same molecule?
Answer: The maximum revertants occurred was at most 11 revertants.

Question: What about the MIC (MRSA HEMSA 5 [4]; Staphylococcus aureus, MRSA HEMSA 5, compound alone, MH II broth, read-out: MIC Value) of the same molecule?
Answer: The MIC was 500 µM.

Question: And the MIC (E. aerogenes CM-64; Klebsiella aerogenes, CM64)?
Answer: Its MIC is over 2000 µM.

Question: And the melting point?
Answer: The melting point was 215 to 217 °C.

Question: And the “HepG2 cells' viability” value (HepG2 cells; 10 µM)?
Answer: Its value is ~ 74 % of control.

Question: And the “effect on HepG2 cells viability” value (HepG2 cells; 10 and 100 µM, p < 0.001 vs control)?
Answer: Its value is “statistically significant decrease”.

Question: What about the Papp at 5 h, 200 µM [9] of the same molecule?
Answer: Its Papp at 5 h, 200 µM is 0.72 ± 0.27 ×10⁻⁶ cm/s.

— PMC6384991, “5-Arylideneimidazolones with Amine at Position 3 as Potential Antibiotic Adjuvants against Multidrug Resistant Bacteria” (Molecules, 2019)
